# Measurements from ChEMBL document CHEMBL1671627, “Increasing trends in antimicrobial resistance among clinically important anaerobes and Bacteroides fragilis isolates causing nosocomial infections: emerging resistance to carbapenems” (2008).
# Legend:
# Prevotella intermedia [1] = test: Antibacterial activity against Prevotella intermedia by CLSI agar dilution method; type: functional
# Fusobacterium mortiferum [2] = test: Antibacterial activity against Fusobacterium mortiferum by CLSI agar dilution method; type: functional
# Veillonella parvula = test: Antibacterial activity against Veillonella parvula by CLSI agar dilution method; type: functional
# Fusobacterium varium [3] = test: Antibacterial activity against Fusobacterium varium by CLSI agar dilution method; type: functional
# [4] = test system: Peptoniphilus asaccharolyticus; test: Antibacterial activity against beta-lactamase producing Peptoniphilus asaccharolyticus by CLSI agar dilution method; type: functional
# Prevotella bivia [5] = test: Antibacterial activity against Prevotella bivia by CLSI agar dilution method; type: functional
# Clostridium perfringens = test: microbe, parasite or virus in culture; type: functional
# Fusobacterium nucleatum [6] = test: Antibacterial activity against Fusobacterium nucleatum by CLSI agar dilution method; type: functional
# Clostridium septicum = test: Antibacterial activity against beta-lactamase producing Clostridium septicum by CLSI agar dilution method; type: functional
# [7] = test system: Bacteroides thetaiotaomicron; test: Antibacterial activity against beta-lactamase producing Bacteroides thetaiotaomicron by CLSI agar dilution method; type: functional
# [8] = test system: Prevotella melaninogenica; test: Antibacterial activity against Prevotella melaninogenica by CLSI agar dilution method; type: functional
# Bacteroides uniformis [9] = test: Antibacterial activity against beta-lactamase producing Bacteroides uniformis by CLSI agar dilution method; type: functional
# Clostridium tertium = test: Antibacterial activity against beta-lactamase producing Clostridium tertium by CLSI agar dilution method; type: functional
# Finegoldia magna = test: Antibacterial activity against beta-lactamase producing Finegoldia magna by CLSI agar dilution method; type: functional
# [10] = test system: Peptostreptococcus anaerobius; test: Antibacterial activity against beta-lactamase producing Peptostreptococcus anaerobius by CLSI agar dilution method; type: functional
# [11] = test system: Fusobacterium necrophorum; test: Antibacterial activity against Fusobacterium necrophorum by CLSI agar dilution method; type: functional
# Bacteroides caccae [12] = test: Antibacterial activity against beta-lactamase producing Bacteroides caccae by CLSI agar dilution method; type: functional
# Bacteroides fragilis [13] = test: Antibacterial activity against Bacteroides fragilis by CLSI agar dilution method; type: functional
# Phocaeicola vulgatus [14] = test: Antibacterial activity against beta-lactamase producing Bacteroides vulgatus by CLSI agar dilution method; type: functional
# [15] = test system: Clostridium paraputrificum; test: Antibacterial activity against beta-lactamase producing Clostridium paraputrificum by CLSI agar dilution method; type: functional
# Parvimonas micra = test: Antibacterial activity against beta-lactamase producing Micromonas micros by CLSI agar dilution method; type: functional
# Prevotella buccae [16] = test: Antibacterial activity against Prevotella buccae by CLSI agar dilution method; type: functional; settings: Segatella buccae
# Bacteroides uniformis [17] = test: Antibacterial activity against beta-lactamase producing Bacteroides uniformis assessed as resistant isolates by CLSI agar dilution method; type: functional
# Fusobacterium mortiferum [18] = test: Antibacterial activity against Fusobacterium mortiferum assessed as resistant isolates by CLSI agar dilution method; type: functional
# Phocaeicola vulgatus [19] = test: Antibacterial activity against beta-lactamase producing Bacteroides vulgatus assessed as resistant isolates by CLSI agar dilution method; type: functional
# [20] = test system: Fusobacterium necrophorum; test: Antibacterial activity against Fusobacterium necrophorum assessed as resistant isolates by CLSI agar dilution method; type: functional
# [21] = test system: Bacteroides thetaiotaomicron; test: Antibacterial activity against beta-lactamase producing Bacteroides thetaiotaomicron assessed as susceptible isolates by CLSI agar dilution method; type: functional
# Prevotella intermedia [22] = test: Antibacterial activity against Prevotella intermedia assessed as susceptible isolates by CLSI agar dilution method; type: functional
# [23] = test system: Prevotella melaninogenica; test: Antibacterial activity against Prevotella melaninogenica assessed as susceptible isolates by CLSI agar dilution method; type: functional
# Fusobacterium varium [24] = test: Antibacterial activity against Fusobacterium varium assessed as susceptible isolates by CLSI agar dilution method; type: functional
# Prevotella intermedia [25] = test: Antibacterial activity against Prevotella intermedia assessed as resistant isolates by CLSI agar dilution method; type: functional
# [26] = test system: Prevotella melaninogenica; test: Antibacterial activity against Prevotella melaninogenica assessed as resistant isolates by CLSI agar dilution method; type: functional
# Prevotella buccae [27] = test: Antibacterial activity against Prevotella buccae assessed as resistant isolates by CLSI agar dilution method; type: functional, Segatella buccae
# Prevotella bivia [28] = test: Antibacterial activity against Prevotella bivia assessed as resistant isolates by CLSI agar dilution method; type: functional
# [29] = test system: Bacteroides thetaiotaomicron; test: Antibacterial activity against beta-lactamase producing Bacteroides thetaiotaomicron assessed as resistant isolates by CLSI agar dilution method; type: functional
# Bacteroides caccae [30] = test: Antibacterial activity against beta-lactamase producing Bacteroides caccae assessed as resistant isolates by CLSI agar dilution method; type: functional
# Fusobacterium nucleatum [31] = test: Antibacterial activity against Fusobacterium nucleatum assessed as susceptible isolates by CLSI agar dilution method; type: functional
# Fusobacterium nucleatum [32] = test: Antibacterial activity against Fusobacterium nucleatum assessed as resistant isolates by CLSI agar dilution method; type: functional
# Bacteroides fragilis [33] = test: Antibacterial activity against Bacteroides fragilis assessed as susceptible isolates by CLSI agar dilution method; type: functional
# Fusobacterium varium [34] = test: Antibacterial activity against Fusobacterium varium assessed as resistant isolates by CLSI agar dilution method; type: functional
# [35] = test system: Fusobacterium necrophorum; test: Antibacterial activity against Fusobacterium necrophorum assessed as susceptible isolates by CLSI agar dilution method; type: functional
# Phocaeicola vulgatus [36] = test: Antibacterial activity against beta-lactamase producing Bacteroides vulgatus assessed as susceptible isolates by CLSI agar dilution method; type: functional
# Bacteroides caccae [37] = test: Antibacterial activity against beta-lactamase producing Bacteroides caccae assessed as susceptible isolates by CLSI agar dilution method; type: functional
# Fusobacterium mortiferum [38] = test: Antibacterial activity against Fusobacterium mortiferum assessed as susceptible isolates by CLSI agar dilution method; type: functional
# Prevotella buccae [39] = test: Antibacterial activity against Prevotella buccae assessed as susceptible isolates by CLSI agar dilution method; type: functional, Segatella buccae
# Prevotella bivia [40] = test: Antibacterial activity against Prevotella bivia assessed as susceptible isolates by CLSI agar dilution method; type: functional
# Bacteroides uniformis [41] = test: Antibacterial activity against beta-lactamase producing Bacteroides uniformis assessed as susceptible isolates by CLSI agar dilution method; type: functional
# Bacteroides fragilis [42] = test: Antibacterial activity against Bacteroides fragilis assessed as resistant isolates by CLSI agar dilution method; type: functional
smiles,measurement,setting,value
C[C@H]1COc2c(N3CCN(C)CC3)c(F)cc3c(=O)c(C(=O)O)cn1c23.C[C@H]1COc2c(N3CCN(C)CC3)c(F)cc3c(=O)c(C(=O)O)cn1c23.O [LEVOFLOXACIN],MIC50,Prevotella intermedia [1],1 µg/mL
same,MIC90,Prevotella intermedia [1],16 µg/mL
same,MIC50,Fusobacterium mortiferum [2],2 µg/mL
same,MIC90,Fusobacterium mortiferum [2],4 µg/mL
same,MIC,Veillonella parvula,0.06 µg/mL
same,MIC50,Fusobacterium varium [3],2 µg/mL
same,MIC90,Fusobacterium varium [3],4 µg/mL
same,MIC50,[4],0.5 µg/mL
same,MIC90,[4],32 µg/mL
same,MIC50,Prevotella bivia [5],1 µg/mL
same,MIC90,Prevotella bivia [5],16 µg/mL
same,MIC90,Clostridium perfringens,4 µg/mL
same,MIC50,Fusobacterium nucleatum [6],2 µg/mL
same,MIC90,Fusobacterium nucleatum [6],4 µg/mL
same,MIC50,Clostridium septicum,0.5 µg/mL
same,MIC90,Clostridium septicum,4 µg/mL
same,MIC50,[7],4 µg/mL
same,MIC90,[7],8 µg/mL
same,MIC50,[8],1 µg/mL
same,MIC90,[8],16 µg/mL
same,MIC50,Bacteroides uniformis [9],2 µg/mL
same,MIC90,Bacteroides uniformis [9],8 µg/mL
same,MIC50,Clostridium tertium,0.5 µg/mL
same,MIC90,Clostridium tertium,4 µg/mL
same,MIC50,Finegoldia magna,0.5 µg/mL
same,MIC90,Finegoldia magna,32 µg/mL
same,MIC50,[10],0.5 µg/mL
same,MIC90,[10],32 µg/mL
same,MIC50,[11],2 µg/mL
same,MIC90,[11],4 µg/mL
same,MIC50,Bacteroides caccae [12],2 µg/mL
same,MIC90,Bacteroides caccae [12],8 µg/mL
same,MIC50,Bacteroides fragilis [13],2 µg/mL
same,MIC90,Bacteroides fragilis [13],8 µg/mL
same,MIC50,Phocaeicola vulgatus [14],2 µg/mL
same,MIC90,Phocaeicola vulgatus [14],8 µg/mL
same,MIC50,[15],0.5 µg/mL
same,MIC90,[15],4 µg/mL
same,MIC50,Parvimonas micra,0.5 µg/mL
same,MIC90,Parvimonas micra,32 µg/mL
same,MIC50,Prevotella buccae [16],1 µg/mL
same,MIC90,Prevotella buccae [16],16 µg/mL
CC1(C)S[C@@H]2[C@H](NC(=O)Cc3ccccc3)C(=O)N2[C@H]1C(=O)O [PENICILLIN G],Activity,Bacteroides uniformis [17],100%
same,MIC50,Prevotella intermedia [1],16 µg/mL
same,MIC90,Prevotella intermedia [1],64 µg/mL
same,Activity,Fusobacterium mortiferum [18],11%
same,MIC50,Fusobacterium mortiferum [2],0.25 µg/mL
same,MIC90,Fusobacterium mortiferum [2],1 µg/mL
same,Activity,Phocaeicola vulgatus [19],100%
same,MIC,Veillonella parvula,0.06 µg/mL
same,MIC50,Fusobacterium varium [3],0.25 µg/mL
same,MIC90,Fusobacterium varium [3],1 µg/mL
same,MIC,[4],0.03 µg/mL
same,MIC50,[4],0.03 µg/mL
same,MIC90,[4],1 µg/mL
same,Activity,[20],11%
same,Activity,[21],0%
same,Activity,Prevotella intermedia [22],6%
same,Activity,[23],6%
same,MIC50,Prevotella bivia [5],16 µg/mL
same,MIC90,Prevotella bivia [5],64 µg/mL
same,MIC50,Clostridium perfringens,0.25 µg/mL
same,MIC90,Clostridium perfringens,4 µg/mL
same,Activity,Fusobacterium varium [24],85%
same,Activity,Prevotella intermedia [25],95%
same,Activity,[26],95%
same,MIC50,Fusobacterium nucleatum [6],0.25 µg/mL
same,MIC90,Fusobacterium nucleatum [6],1 µg/mL
same,MIC50,Clostridium septicum,0.25 µg/mL
same,MIC90,Clostridium septicum,4 µg/mL
same,MIC50,[7],16 µg/mL
same,MIC90,[7],> 128 µg/mL
same,Activity,Prevotella buccae [27],95%
same,Activity,Prevotella bivia [28],95%
same,Activity,[29],100%
same,Activity,Bacteroides caccae [30],100%
same,MIC50,[8],16 µg/mL
same,MIC90,[8],64 µg/mL
same,MIC50,Bacteroides uniformis [9],> 128 µg/mL
same,MIC90,Bacteroides uniformis [9],> 128 µg/mL
same,MIC50,Clostridium tertium,0.25 µg/mL
same,MIC90,Clostridium tertium,4 µg/mL
same,Activity,Fusobacterium nucleatum [31],85%
same,Activity,Fusobacterium nucleatum [32],11%
same,MIC,Finegoldia magna,0.03 µg/mL
same,MIC50,Finegoldia magna,0.03 µg/mL
same,MIC90,Finegoldia magna,1 µg/mL
same,MIC,[10],0.03 µg/mL
same,MIC50,[10],0.03 µg/mL
same,MIC90,[10],1 µg/mL
same,MIC50,[11],0.25 µg/mL
same,MIC90,[11],1 µg/mL
same,Activity,Bacteroides fragilis [33],0%
same,MIC50,Bacteroides caccae [12],> 128 µg/mL
same,MIC90,Bacteroides caccae [12],> 128 µg/mL
same,Activity,Fusobacterium varium [34],11%
same,Activity,[35],85%
same,MIC50,Bacteroides fragilis [13],16 µg/mL
same,MIC90,Bacteroides fragilis [13],> 128 µg/mL
same,Activity,Phocaeicola vulgatus [36],0%
same,Activity,Bacteroides caccae [37],0%
same,MIC50,Phocaeicola vulgatus [14],> 128 µg/mL
same,MIC90,Phocaeicola vulgatus [14],> 128 µg/mL
same,Activity,Fusobacterium mortiferum [38],85%
same,MIC50,[15],0.25 µg/mL
same,MIC90,[15],4 µg/mL
same,Activity,Prevotella buccae [39],6%
same,MIC,Parvimonas micra,0.03 µg/mL
same,MIC50,Parvimonas micra,0.03 µg/mL
same,MIC90,Parvimonas micra,1 µg/mL
same,MIC50,Prevotella buccae [16],16 µg/mL
same,MIC90,Prevotella buccae [16],64 µg/mL
same,Activity,Prevotella bivia [40],6%
same,Activity,Bacteroides uniformis [41],0%
same,Activity,Bacteroides fragilis [42],100%
